Structures can show the parent of a compound that is named as a salt.
Key:
[1] = biological target: T1, human norepinephrine transporter (Homo sapiens, UniProt P23975); test: hNET receptor binding ([125I]-RTI-55 radioligand); settings: membranes of HEK-293 cells transfected with human norepinephrine transporter cDNA; 50 pM [125I]-RTI-55; IC50 converted by Cheng-Prusoff; read-out: NET Ki
T1 construct: expressed in transfected cells; host or cells: HEK-293
Procedure: (§1) Cell pastes of HEK-293 cells transfected with a human norepinephrine transporter cDNA were prepared. The cell pastes were resuspended in 400 to 700 ml of Krebs-HEPES assay buffer (25 mM HEPES, 122 mM NaCl, 3 mM KCl, 1.2 mM MgSO4, 1.3 mM CaCl2, and 11 mM glucose, pH 7.4) with a Polytron homogenizer at setting 7 for 30 seconds. Aliquots of membranes (5 mg/ml protein) were stored in liquid nitrogen until used.
The binding assay was set up in Beckman deep-well polypropylene plates with a total volume of 250 μl containing: test compound (10^−5M to 10^−12M), cell membranes, and 50 pM [^125I]-RTI-55 (Perkin Elmer, NEX-272; specific activity 2200 Ci/mmol). The reaction was incubated by gentle agitation for 90 minutes at room temperature and was terminated by filtration through Whatman GF/C filter plates using a Brandel 96-well plate harvester. Scintillation fluid (100 μl) was added to each well, and bound [^125I]-RTI-55 was determined using a Wallac Trilux Beta Plate Counter. Test compounds were run in duplicate, and specific binding was defined as the difference between binding in the presence and absence of 10 μM desipramine.
Excel and GraphPad Prism software were used for data calculation and analysis. IC50 values were converted to K, values using the Cheng-Prusoff equation.

[2] = biological target: T2, human serotonin transporter (Homo sapiens, UniProt P31645); test: hSERT receptor binding ([125I]-RTI-55 radioligand); settings: membranes of HEK-293 cells transfected with human serotonin transporter cDNA; 50 pM [125I]-RTI-55; IC50 converted by Cheng-Prusoff; read-out: SERT Ki
T2 construct: expressed in transfected cells; host or cells: HEK-293
T2 sequence (P31645 whole entry): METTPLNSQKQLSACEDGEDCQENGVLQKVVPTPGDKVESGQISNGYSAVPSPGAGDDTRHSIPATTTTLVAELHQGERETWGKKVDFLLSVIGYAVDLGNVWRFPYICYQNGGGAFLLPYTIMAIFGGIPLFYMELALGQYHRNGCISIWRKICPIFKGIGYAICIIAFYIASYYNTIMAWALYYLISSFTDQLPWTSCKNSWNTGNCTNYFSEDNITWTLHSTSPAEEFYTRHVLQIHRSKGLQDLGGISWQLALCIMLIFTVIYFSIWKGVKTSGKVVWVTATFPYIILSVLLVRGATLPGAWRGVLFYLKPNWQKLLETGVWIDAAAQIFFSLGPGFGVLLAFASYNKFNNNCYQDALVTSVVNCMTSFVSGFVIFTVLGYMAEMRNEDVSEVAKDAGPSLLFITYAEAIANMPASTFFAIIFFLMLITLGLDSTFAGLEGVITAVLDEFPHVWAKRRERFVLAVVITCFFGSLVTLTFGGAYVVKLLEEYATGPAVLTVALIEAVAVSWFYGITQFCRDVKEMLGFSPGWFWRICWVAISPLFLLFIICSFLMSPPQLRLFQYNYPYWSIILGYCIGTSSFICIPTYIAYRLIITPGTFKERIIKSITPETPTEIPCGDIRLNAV
Procedure: as §1, with “serotonin” for “norepinephrine”, “Setting” for “setting”, “(˜2.5” for “(5”
Assays were set up in FlashPlates pre-coated with 0.1% PEI in a total volume of 250 μl containing: test compound (10^−5M to 10^−12M), cell membranes, and 50 pM [^125I]-RTI-55 (Perkin Elmer, NEX-272; specific activity 2200 Ci/mmol). The reaction was incubated and gently agitated for 90 minutes at room temperature, and terminated by removal of assay volume. Plates were covered, and bound [^125I]-RTI-55 was determined using a Wallac Trilux Beta Plate Counter. Test compounds were run in duplicate, and specific binding was defined as the difference between binding in the presence and absence of 10 μM citalopram.
Excel and GraphPad Prism software were used for data calculation and analysis. IC50 values were converted to Ki values using the Cheng-Prusoff equation.

T1 sequence (P23975 whole entry): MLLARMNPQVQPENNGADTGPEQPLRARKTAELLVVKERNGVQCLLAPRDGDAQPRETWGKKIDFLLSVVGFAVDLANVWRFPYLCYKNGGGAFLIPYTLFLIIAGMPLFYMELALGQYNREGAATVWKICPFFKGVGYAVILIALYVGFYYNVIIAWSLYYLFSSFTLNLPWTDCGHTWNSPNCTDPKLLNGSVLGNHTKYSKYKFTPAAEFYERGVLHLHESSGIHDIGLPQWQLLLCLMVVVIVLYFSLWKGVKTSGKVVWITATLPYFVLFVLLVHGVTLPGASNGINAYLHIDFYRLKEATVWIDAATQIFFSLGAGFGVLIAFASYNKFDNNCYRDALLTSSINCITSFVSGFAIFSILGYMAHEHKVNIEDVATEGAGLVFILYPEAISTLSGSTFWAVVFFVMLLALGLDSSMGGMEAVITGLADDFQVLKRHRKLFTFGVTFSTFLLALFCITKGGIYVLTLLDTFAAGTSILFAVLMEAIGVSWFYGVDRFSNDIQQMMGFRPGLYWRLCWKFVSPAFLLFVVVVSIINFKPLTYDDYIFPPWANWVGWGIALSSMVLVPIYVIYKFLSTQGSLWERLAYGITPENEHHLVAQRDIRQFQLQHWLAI

Compound | Ki [1] [nM] | Ki [2] [nM]
Fc1ccc(-c2cccc(C(F)(F)F)c2)c(CO[C@H]2CCNC2)c1 [Example D-75, (S)-3-(4-Fluoro-3′-trifluoromethyl-biphenyl-2-ylmethoxy)-pyrrolidine] | 598 | 106
FC(F)(F)Oc1ccccc1-c1ccccc1CO[C@H]1CCNC1 [Example D-37, (S)-3-(2′-Trifluoromethoxy-biphenyl-2-ylmethoxy)-pyrrolidine] | 1000 | 5650
Fc1cccc(-c2ccc(F)cc2CO[C@H]2CCNC2)c1 [Example D-80, (S)-3-(4,3′-Difluoro-biphenyl-2-ylmethoxy)-pyrrolidine] | 36 | 44.7
Nc1ncccc1-c1ccccc1CO[C@H]1CCNC1 [Example D-121, (S)-3-[2-(Pyrrolidin-3-yloxymethyl)-phenyl]-pyridin-2-ylamine] | ≥ 10000 | 5630
CCOc1cccc(-c2ccccc2CO[C@H]2CCNC2)c1 [Example D-1, (S)-3-(3′-Ethoxy-biphenyl-2-ylmethoxy)-pyrrolidine] | 4.84 | 39.2
COc1ccc(-c2ccccc2CO[C@H]2CCNC2)cn1 [Example A-29, (S)-2-Methoxy-5-[2-(pyrrolidin-3-yloxymethyl)-phenyl]-pyridine fumarate] | 2910 | 2470
Fc1ccc(-c2cccc(OC(F)(F)F)c2)c(CO[C@H]2CCNC2)c1 [Example D-95, (S)-3-(4-Fluoro-3′-trifluoromethoxy-biphenyl-2-ylmethoxy)-pyrrolidine] | 331 | 122
Fc1ccc(-c2ccccc2CO[C@H]2CCNC2)cc1Cl [Example D-14, (S)-3-(3′-Chloro-4′-fluoro-biphenyl-2-ylmethoxy)-pyrrolidine] | 47.3 | 15.1
COc1ccc(-c2ccc(F)cc2CO[C@H]2CCNC2)cc1OC [Example D-84, (S)-3-(4-Fluoro-3′,4′-dimethoxy-biphenyl-2-ylmethoxy)-pyrrolidine] | 1920 | 70.4
CC(C)Oc1ncccc1-c1ccccc1CO[C@H]1CCNC1 [Example D-119, (S)-2-Isopropoxy-3-[2-(pyrrolidin-3-yloxymethyl)-phenyl]-pyridine] | 963 | 2730
N#Cc1cccc(-c2ccccc2CO[C@H]2CCNC2)c1 [Example D-30] | 371 | 285
CSc1ccccc1-c1ccccc1CO[C@H]1CCNC1 [Example A-21, (S)-3-(2′-Methylsulfanyl-biphenyl-2-ylmethoxy)-pyrrolidine hydrochloride] | 610 | 307
Fc1ccc(-c2c(F)cccc2CO[C@H]2CCNC2)c(F)c1 [Example A-34, (3S)-3-[(2′,4′,6-trifluorobiphenyl-2-yl)methoxy]pyrrolidine hydrochloride] | 23.3 | 439
(S)-1-{3-[2-Pyrrolidin-3-yloxymethyl)-phenyl]-pyridin-2-yl}-piperazine [Example D-125] | ≥ 10000 | 6930
Fc1ccc(-c2cccc(Cl)c2)c(CO[C@H]2CCNC2)c1 [Example D-108, (S)-3-(3′-Chloro-4-fluoro-biphenyl-2-ylmethoxy)-pyrrolidine] | 103 | 57
c1ccc(-c2ccccc2CO[C@H]2CCNC2)cc1 [Example A-7, (S)-3-(Biphenyl-2-ylmethoxy)-pyrrolidine hydrochloride] | 13.5 | 34.5
c1cncc(-c2ccccc2CO[C@H]2CCNC2)c1 [Example A-27, (S)-3-[2-(Pyrrolidin-3-yloxymethyl)-phenyl]-pyridine hydrochloride] | 2210 | 211

Compound | Ki [1] [nM] | Ki [2] [nM]
Fc1ccc(-c2ccc(Cl)c(Cl)c2)c(CO[C@H]2CCNC2)c1 [Example D-83, (S)-3-(3′,4′-Dichloro-4-fluoro-biphenyl-2-ylmethoxy)-pyrrolidine] | 109 | 71.6
Fc1ccc(-c2cccc(-n3cccn3)c2)c(CO[C@H]2CCNC2)c1 [Example D-116, (S)-1-[4′-Fluoro-2′-(pyrrolidin-3-yloxymethyl)-biphenyl-3-yl]-1H-pyrazole] | 688 | 38.7
Fc1ccc(-c2ccc(OC(F)(F)F)cc2)c(CO[C@H]2CCNC2)c1 [Example D-91, (S)-3-(4-Fluoro-4′-trifluoromethoxy-biphenyl-2-ylmethoxy)-pyrrolidine] | 935 | 16.5
Clc1cccc(-c2ccccc2CO[C@H]2CCNC2)c1 [Example D-13, (S)-3-(3′-Chloro-biphenyl-2-ylmethoxy)-pyrrolidine] | 43.8 | 21.6
CSc1cccc(-c2ccccc2CO[C@H]2CCNC2)c1 [Example D-20, (S)-3-(3′-Methylsulfanyl-biphenyl-2-ylmethoxy)-pyrrolidine] | 108 | 24.8
CCS(=O)(=O)c1ccc(-c2ccccc2CO[C@H]2CCNC2)cc1 [Example D-58, (S)-3-(4′-Ethanesulfonyl-biphenyl-2-ylmethoxy)-pyrrolidine] | ≥ 10000 | 3030
COc1ccccc1-c1ccccc1CO[C@H]1CCNC1 [Example D-31, (S)-3-(2′-Methoxy-biphenyl-2-ylmethoxy)-pyrrolidine] | 464 | 3100
COc1ccc(Cl)cc1-c1ccc(F)cc1CO[C@H]1CCNC1 [Example D-61, (S)-3-(5′-Chloro-4-fluoro-2′-methoxy-biphenyl-2-ylmethoxy)-pyrrolidine] | 993 | 794
Fc1ccc(-c2ccc(F)cc2CO[C@H]2CCNC2)cc1 [Example D-74, (S)-3-(4,4′-Difluoro-biphenyl-2-ylmethoxy)-pyrrolidine] | 43.4 | 146
COc1ccc(-c2ccc(F)cc2CO[C@H]2CCNC2)cc1C [Example D-98, (S)-3-(4-Fluoro-4′-methoxy-3′-methyl-biphenyl-2-ylmethoxy)-pyrrolidine] | 187 | 292
N#Cc1cccc(-c2ccccc2CO[C@H]2CCNC2)c1 [Example D-53] | ≥ 10000 | ≥ 10000
FC(F)(F)Oc1ccc(-c2ccccc2CO[C@H]2CCNC2)cc1 [Example D-43, (S)-3-(4′-Trifluoromethoxy-biphenyl-2-ylmethoxy)-pyrrolidine] | 2670 | 16.9
CCOc1ccc(-c2ccccc2CO[C@H]2CCNC2)cc1 [Example D-40, (S)-3-(4′-Ethoxy-biphenyl-2-ylmethoxy)-pyrrolidine] | 1260 | 919
COc1ccc(-c2ccccc2CO[C@H]2CCNC2)cc1C [Example D-2, (S)-3-(4′-Methoxy-3′-methyl-biphenyl-2-ylmethoxy)-pyrrolidine] | 8.42 | 261
Fc1ccc(-c2ncccc2CO[C@H]2CCNC2)cc1F [Example B-3, (S)-2-(3,4-Difluoro-phenyl)-3-(pyrrolidin-3-yloxymethyl)-pyridine fumarate] | 310 | 1200
Fc1ccccc1-c1ccccc1CO[C@H]1CCNC1 [Example D-3, (S)-3-(2′-Fluoro-biphenyl-2-ylmethoxy)-pyrrolidine] | 14.7 | 304
N#Cc1ccc(-c2ccc(F)cc2CO[C@H]2CCNC2)cc1 [Example D-110, (S)-4′-Fluoro-2′-(pyrrolidin-3-yloxymethyl)-biphenyl-4-carbonitrile] | 1200 | 1320
